# From US12377086B2, “Therapeutic methods, combinations and kits” (priority 2021, dated 2025)
# Like-named read-outs stand apart in the source and are kept apart here.
# Legend:
# Assay in all cases: biochemical
# VIM-2 [1] = biological target: T1, VIM-2 (Pseudomonas aeruginosa, UniProt Q5U7L7)
# Protocol: (§1) The pET24a-VIM-2 plasmid was transformed into competent BL21 (DE3) E. coli cells. The cells were plated onto an LB-agar plate with kanamycin (25 μg/mL) and incubated overnight at 37° C. A single colony was used to inoculate 50 mL of LB, containing 25 μg/mL kanamycin, and the culture was shaken overnight at 37° C. From the overnight culture, 10 mL were transferred to 4×IL LB medium containing 25 μg/mL kanamycin. The cultures were grown at 37° C. until an optical density (OD600 nm) of 0.6-0.8 was reached, at which point protein production was induced with IPTG (0.5 mM) and ZnCl2 (100 μM). The temperature was reduced to 20° C., and the cells were shaken for an additional 18 h. The cultures were harvested by centrifugation (8 Kxg) for 10 min at 4° C. The resulting pellets were re-suspended in 25 mL of 50 mM HEPES, pH 7.5, containing 500 mM NaCl (buffer B). The cells were lysed with three passes through a French Press. The lysate was centrifuged (15 Kxg) for 30 min at 4° C. The supernatant was dialyzed against 2 L of 50 mM HEPES, pH 7.5 (buffer A), for 4 h. Buffer A was used to equilibrate a 25 mL Q-Sepharose column using an FPLC. The sample was loaded onto the column, and proteins were eluted with a linear gradient 0-500 mM NaCl with buffer B. Fractions containing VIM-2, determined by SDS-PAGE, were pooled and concentrated to 2-3 mL in an Amicon ultraconcentrator equipped YM-10 membrane. Further purification was conducted with a Sephacryl S-200 gel filtration column using 50 mM HEPES, pH 7.5, containing 150 mM NaCl. Fractions containing pure VIM-2 were pooled, and metal analysis was performed.
# (§2) To identify potential MBL inhibitors, the relative change in the formation of hydrolyzed nitrocefin between treated and untreated MBL was determined as percentage inhibition. 5 nM of each BML was pre-incubated for 10 mins with 50 μM of each compound, followed by the addition of 10 μM nitrocefin.
# (§3) Each MBL was incubated with 50 μM of each compound, followed by the addition of nitrocefin. The relative change in absorbance is reported as percentage inhibition.
# NDM-1 = NDM-1 (Klebsiella pneumoniae, UniProt C7C422)
# Protocol: BL21 (DE3) E. coli cells containing the pET26b-ndm-1 plasmid were used to inoculate a 50 mL LB starter culture containing kanamycin (25 μg/mL). The culture was grown overnight at 37° C. The starter culture was then used to inoculate 4×1 L LB containing kanamycin (25 μg/mL). These flasks were incubated at 37° C. until culture reached an optical density of (OD600) of 0.6 to 0.8. The incubator was then set to 22° C. and the cultures were shaken for 30 min to allow them to cool. ZnCl2 ([…]) and IPTG (0.5 mM) were then added to the cultures and they were grown for 18 h at 22° C. The cells were then harvested using centrifugation (8000×g) for 10 min. The pellet was resuspended with 25 mL 50 mM HEPES, pH 7.5 containing 500 mM NaCl (Buffer B). Lysis was performed with three passes through a French Press. The lysate was centrifuged for 30 min (15,000×g) at 4° C. The supernatant was then dialyzed versus 2 L 50 mM HEPES, pH 7.5 (Buffer C) for 4 h. An FPLC was used to equilibrate a Q-Sepharose column using buffer C using a flowrate of 2.0 mL/min for 1.5 h. The lysate was then loaded onto the column and eluted with a linear NaCl gradient from 0-500 mM. Fractions containing NDM-1 were identified with SDS-PAGE. These fractions were pooled and concentrated to 2-3 mL in an Amicon ultracentrifugation concentrating unit with a YM-10 membrane. The resulting protein mixture was then loaded onto a Sephacryl S-200 gel filtration column run with 50 mM HEPES, pH 7.5 containing 150 mM NaCl (Buffer A). SDS-PAGE was used to identify fractions containing pure protein.
# as §2, §3
# VIM-2 [2] = biological target: T1, VIM-2; remark: listed apart in the source
# Protocol: as §1, with “Further purification was conducted with a Sephacryl S-200 gel filtration column using 50 mM HEPES, pH 7.5, containing 150 mM NaCl.” left out
# The enzyme inhibition constant (Ki) was derived from initial-velocity measurements by nonlinear regression using competitive-inhibition enzyme kinetics using Graphpad Prism 6.
# [3] = 50 μM compound, 5 nM MBL, 10 μM nitrocefin, 30 mins, read-out: VIM-2 percentage inhibition
# [4] = 50 μM compound, 5 nM MBL, 10 μM nitrocefin, 30 mins, read-out: NDM-1 percentage inhibition
# [5] = read-out: VIM-2 percentage inhibition
# [6] = read-out: NDM-1 percentage inhibition, 50 μM compound, 5 nM MBL, 10 μM nitrocefin, 30 mins
# [7] = 50 μM compound, 5 nM MBL, 10 μM nitrocefin, 30 mins
# [8] = 5 nM MBL, 10 μM nitrocefin, read-out: VIM-2 IC50
# [9] = nitrocefin substrate, competitive-inhibition fit, read-out: VIM-2 Ki
# NDM-1, sequence (C7C422 whole entry, looked up, species assumed): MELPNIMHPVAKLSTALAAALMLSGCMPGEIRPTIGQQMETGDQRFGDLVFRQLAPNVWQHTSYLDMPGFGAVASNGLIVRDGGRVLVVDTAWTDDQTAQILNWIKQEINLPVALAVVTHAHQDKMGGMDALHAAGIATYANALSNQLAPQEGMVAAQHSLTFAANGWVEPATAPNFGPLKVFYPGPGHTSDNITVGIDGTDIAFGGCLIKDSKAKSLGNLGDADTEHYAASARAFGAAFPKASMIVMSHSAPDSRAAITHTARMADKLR
Structure (SMILES),inhibition at 50 µM (VIM-2 [1]; [3]) [%],inhibition at 50 µM (NDM-1; [4]) [%],VIM-2 percentage inhibition (VIM-2 [1]; [7]) [%],further results
CCOC(=O)CS [Compound 2],16,55,,
CC(S)C(=O)O (centres unmarked) [Compound 3],17,50,,
O=C(O)CC(S)C(=O)O (centres unmarked) [Compound 4],,,,inhibition at 50 µM (VIM-2 [1]; [5]): 22%; inhibition at 50 µM (NDM-1; [6]): 39%
O=C(O)/C(S)=C\c1cccnc1 [Compound 5],40,40,,IC50 (VIM-2 [2]): 24 µM; Ki (VIM-2 [2]): 4.5 µM; NDM-1 percentage inhibition (NDM-1; [7]): 39%
Oc1ccnc(S)n1 [Compound 6],,,,inhibition at 50 µM (VIM-2 [1]; [5]): 13%; inhibition at 50 µM (NDM-1; [6]): 48%
Nc1nc(S)ncc1C(=O)O [Compound 7],9,44,,
Cc1nc(S)nc(O)c1CC(=O)O [Compound 8],18,63,,
Sc1nccc(-c2ccccn2)n1 [Compound 9],29,43,,
Sc1nccc(-c2cccs2)n1 [Compound 10],21,8,,
Cc1cc(C(=O)O)nc2[nH]c(=S)[nH]c(=O)c12 [Compound 11],20,50,,
CC(=O)c1ccc(O)c(O)c1O [Compound 12],22,18,,
O=C(c1ccc(O)cc1)c1ccc(O)c(O)c1O [Compound 13],40,40,48,IC50 (VIM-2 [2]): 81 µM; Ki (VIM-2 [2]): 8.8 µM; NDM-1 percentage inhibition (NDM-1; [7]): 36%
O=C(O)c1c(O)cccc1O [Compound 14],4,51,,
"O=C(CCCCCCC(=O)Nc1ccccc1)NO [Compound 15, SAHA, reference compound]",18,,,
O=C(NO)c1n[nH]c(Cl)n1 [Compound 16],8,49,,
O=C1[C@@H](c2ccccc2)SCN1O [Compound 17],40,40,33,IC50 (VIM-2 [2]): 41 µM; Ki (VIM-2 [2]): 5.3 µM
O=C1c2ccccc2C(=O)N1O [Compound 18],18,30,,
Cc1nc2ccccc2c(=O)n1O [Compound 19],22,46,,
Cc1cc(C)n(-c2nc3ccccc3c(=O)n2O)n1 [Compound 20],16,,,
O=c1c2ccccc2[nH]c(=S)n1O [Compound 21],27,,,
O=c1c(-c2ccco2)[n+]([O-])c2ccccc2n1O [Compound 22],9,12,,
O=c1c(-c2cccs2)[n+]([O-])c2ccccc2n1O [Compound 23],25,51,,
O=C(O)c1cccc(C(=O)O)n1 [Compound 24],,,,inhibition at 50 µM (VIM-2 [1]; [5]): 15%; inhibition at 50 µM (NDM-1; [6]): > 50%

Structure (SMILES),inhibition at 50 µM (VIM-2 [1]; [3]) [%],inhibition at 50 µM (NDM-1; [4]) [%],VIM-2 percentage inhibition (VIM-2 [1]; [7]) [%],further results
O=C(O)c1cc(O)cc(C(=O)O)n1 [Compound 25],,,,inhibition at 50 µM (VIM-2 [1]; [5]): 27%
CC(C)Cc1cc(C(=O)O)nc(O)n1 [Compound 26],5,58,,
Cc1cc(C(=O)O)nc(O)n1 [Compound 27],17,54,,
Cc1ccc(O)c(CO)n1 [Compound 28],25,53,,
CC(C)c1cc(C(=O)O)nc2[nH][nH]c(=O)c12 [Compound 29],18,,,
Cc1cc(C(=O)O)nc2[nH][nH]c(=O)c12 [Compound 30],21,66,,
Oc1ccc2ccccc2n1 [Compound 32],,,9,NDM-1 percentage inhibition (NDM-1; [7]): 0%
"Oc1cnc2ccccc2c1 [Compound 33, 3-hydroxyquinoline]",,,,"inhibition at 50 µM (VIM-2 [1]; read-out: VIM-2 percentage inhibition, 50 μM compound, 5 nM MBL, 10 μM nitrocefin, 30 mins): 95%; inhibition at 50 µM (NDM-1; [6]): 33%"
Oc1ccnc2ccccc12 [Compound 34],,,9,NDM-1 percentage inhibition (NDM-1; [7]): 1%
Oc1cccc2ncccc12 [Compound 35],,,6,NDM-1 percentage inhibition (NDM-1; [7]): 6%
Oc1ccc2ncccc2c1 [Compound 36],,,7,NDM-1 percentage inhibition (NDM-1; [7]): 1%
Oc1ccc2cccnc2c1 [Compound 37],,,3,NDM-1 percentage inhibition (NDM-1; [7]): 8%
Nc1cccc2cccnc12 [Compound 38],,,43,NDM-1 percentage inhibition (NDM-1; [7]): 3%
[O-][n+]1cccc2cccc(O)c21 [Compound 39],,,27,NDM-1 percentage inhibition (NDM-1; [7]): 7%
Cc1ccc2cccc(O)c2n1 [Compound 40],,,77,NDM-1 percentage inhibition (NDM-1; [7]): 9%
Nc1ccc(O)c2ncccc12 [Compound 42],,,96,IC50 (VIM-2 [2]; [8]): 3.8 µM; Ki (VIM-2 [2]; [9]): 0.88 µM
O=C(O)c1cnc2c(O)cccc2c1 [Compound 43],,,91,IC50 (VIM-2 [2]; [8]): 1.6 µM; Ki (VIM-2 [2]; [9]): 0.53 µM
O=C(O)c1ccnc2c(O)cccc12 [Compound 44],,,92,
Oc1ccc(Cl)c2cccnc12 [Compound 46],,,98,IC50 (VIM-2 [2]; [8]): 4.1 µM; Ki (VIM-2 [2]; [9]): 0.96 µM
Oc1c(Cl)cc(Cl)c2cccnc12 [Compound 47],,,96,IC50 (VIM-2 [2]; [8]): 4.1 µM; Ki (VIM-2 [2]; [9]): 1.1 µM
Oc1c(Br)cc(Br)c2cccnc12 [Compound 49],,,92,
Cc1ccc2c(Cl)cc(Cl)c(O)c2n1 [Compound 50],,,95,IC50 (VIM-2 [2]; [8]): 4.8 µM; Ki (VIM-2 [2]; [9]): 0.96 µM
